Experiments:
[1] = dogs; cited from earlier work
[2] = cited from earlier work
[3] = human, in vivo
Experimental: Pharmacokinetic studies (PK). Bloods for pharmacokinetic studies (PK) will be performed on days 1, 2, 8, 15 and 29 of treatment. Repeated bloods for PK will be drawn on day #1 only, before the daily dose (time=0), 1 hour after, and 2,4, 6, 8 and 24 hours after the first dose of huanglian. On all other days, a single PK blood sample will be drawn, to measure steady state levels of the drug. For these studies 10 ml of heparinized blood (green stopper vacutainer tube) will be collected. Plasma samples (PK) will be sent for pharmacokinetic measurements of huanglian peaks.
Pharmacokinetic (PK) and surrogate marker studies: Since berberine represents approximately 50% of the herb, PK measurements were being conducted of berberine by HPLC. However, only very low levels of berberine (<50 ng/ml) have been detected in the plasma of any patient on the study. Also being tested is plasma collected from patients on day #15 of therapy to determine if the patient's own plasma will inhibit cancer cell growth of the gastric cancer cell line MKN-74 ex vivo, as determined by SRB assays. For these studies, the patient's plasma is concentrated and the MKN-74 cells are exposed to the patient's own plasma for either 2 (II) or 4 (IV) days before the tumor cells are assayed for growth inhibition. As shown for the patient treated in cohort 3 (see graph below), the patient's own pretreatment plasma (day 0) was capable of inhibiting MKN-74 cell growth, even though the patient had been off all chemotherapy for at least 4 weeks. Three separate samples were then drawn on day 15 of treatment at 8:30 AM, 9:30 AM, and 12:30 PM. […] The last lanes show the positive control of media “spiked” with huanglian (HL) at a concentration of 20 μg/ml and exposed to MKN-74 cells for both 2 and 4 days. This degree of growth suppression confirms the activity of the herb from the capsules.

[4] = Metabolism by human liver S9 microsomes, HPLC/UV; format: in vitro ADME; conditions: extract 3 μ/ml, S9 1 mg/ml with NADPH
Experimental: Since oral drugs are metabolised by a “first-pass” through the liver, we also elected to determine whether huanglian would be metabolised in vitro by human liver S9 microsomes (Gentest, MA). This assay creates metabolites of a drug that are equivalent to those formed on a “first-pass” through the liver. For these studies, the huanglian extract, at a final concentration of 3 μ/ml, was exposed to human liver S9 microsomes at 1 mg/ml with NADPH. The microsomal extracts obtained in this assay were then analyzed by HPLC and UV spectroscopy.

[5] = test system: MKN-74; experiment: MTT growth assay; format: cell-based, human; conditions: 10 μg/ml berberine
Experimental: The cells were treated on day 0 with huanglian and then cell viability in the continued presence or absence (control) of drug was determined for the subsequent 5 days (days 1 to 5) by the MTT (3-(4,5-dimethythiazol-2-yl)-2-5-diphenyltetratrazolium bromide) assay. In this colorometric assay the absorbance of converted dye is measured at a wavelength (OD) of 550 nm and the increased absorbance is directly proportional to cell viability.
Since berberine constitutes the major fraction of huanglian (25%), a 10 μg/ml solution of berberine was tested to determine the degree to which it inhibited proliferation of the MKN-74 cells.

[6] = test system: HepG2 hepatoma cells; conditions: continuous exposure, 1 to 50 μM; cited from earlier work
[7] = cited from earlier work; remark: listed apart in the source
[8] = test system: MKN-74 cells; experiment: Flow cytometry with MPM-2 labeling after nocodazole synchronisation; format: cell-based, human
Excerpt: Activation of cyclin B1 associated cdc2 kinase by mitotic inhibitors including paclitaxel induces an increased accumulation of cells into the M phase of the cell cycle (12). Thus, a decrease in cyclin B1 associated kinase activity should prevent cells from entering M and results in an accumulation of cells in G2. It should also force cells in M to exit M and continue to cell cycle. Experiments were designed to test this in the MKN-74 cells by flow cytometry and labeling of cells with the MPM-2 antibody which identifies cells in mitosis. This is difficult to assess in asynchronous cells. So as to better document accumulation of cell in G2, experiments were designed to first synchronise the cells with nocodazole in the M phase (e.g. mitotic block).

Plasma B [3] | berberine in plasma by HPLC [3] | berberine level in plasma [3] | change of HPLC peaks after liver microsome treatment [4] | SMILES | cardiovascular effects [1] | clinical effect at higher plasma concentration ([2]; berberine plasma concentrations >0.11 mg/L) | side effects ([2]; by mouth, 1.2 gm/d for two weeks, 56 patients) | inhibition of cell proliferation [5] | tumor cell growth [6] | facial flushing ([7]; 12 patients) | transient nausea ([7]; 12 patients) | QTc interval ([7]; after berberine, returned to baseline after 24 hours) | hemodynamic effects ([7]; i.v. 0.2 mg/kg/min over 30 minutes) | ventricular tachycardia with torsades de pointes morphology, patients ([7]; within 1-20 hours of the infusion) | cells remaining in M ([8]; nocodazole for 12 hours (NOC12)) | cells remaining in M ([8]; nocodazole, then drug free medium 24 hours (NOC12→(−)24))
0 to 0.024 µg/mL | non-measurable by HPLC | < 50 ng/mL | decreased only slightly | COc1ccc2cc3[n+](cc2c1OC)CCc1cc2c(cc1-3)OCO2 [berberine] | positive inotropic effects and lower peripheral vascular resistance | more significant increase in LVEF and decrease in the frequency and complexity of ventricular premature beats | no side effects or arrythmogenesis | not able to inhibit cell proliferation to the same degree as either the huanglian or its metabolites | inhibits tumor cell growth in a dose-dependent manner | 2 patients | 2 patients | consistently elevated in all 12 patients | decrease in pulmonary and systemic vascular resistance and an increase in cardiac index and ejection fraction | Four of 12 | – | –
– | – | – | – | COC(=O)Nc1nc2ccc(C(=O)c3cccs3)cc2[nH]1 [nocodazole] | – | – | – | – | – | – | – | – | – | – | 41% | 16%
